Test results taken from patent publication US20050096323A1, “Diketopiperazine derivatives to inhibit thrombin” (NovoScience Pharma Inc., priority 1999, published 2005).
Counter-ions that a name gives are not always drawn.

Key:
[1] = target: T1, tissue plasminogen activator (tPA) (Homo sapiens, UniProt P00750); test: tPA inhibition constant (Ki), fluorogenic substrate assay; format: biochemical
T1 construct: purchased Sigma
Protocol: The activity and selectivity of the present invention can be identified by determination of the inhibition constant (Ki) for serine proteases such thrombin and trypsin and fibrinolytic enzymes such as urokinase, plasmin and tissue plasminogen activator (tPA). All of enzymes are purchased from Sigma. The general assay conditions are as follows. The fluorogenic substrates are dissolved in DMSO and diluted using assay buffer containing 50 mM Tris.HCl (pH 7.8 at 25° C.), 0.1 M NaCl and 0.1% polyethylene glycol 8000 (PEG 8000). […] The assays were conducted using Hitachi F2500 spectrophotometer under ambient temperature and at the excitation and emission wavelengths of 383 nm and 455 nm, respectively. The typical progressive data of the enzymatic assays are shown in FIGS. 1-3, and the determination of inhibition constant (Ki) is shown in FIG. 4.

[2] = tested on: pooled normal human plasma; test: Ex vivo coagulation assay (APTT prolongation); format: biochemical; conditions: normal citrated human plasma
Protocol: Frozen-pooled human plasma was obtained from Sigma. Measurement of APTT was made using the ELECTRA™ 800 automated coagulometer (Medical Laboratory Automation Inc.) using the automated APTT reagent (SIGMA) as the initiator of clotting according to the manufacture's instructions. The assay was conducted by making a series of dilution of the reference and test compounds in rapidly thawed plasma (compound: plasma=0.1 ml:0.9 ml) followed by adding the mixed solution to the wells of the assay carousel. Tris buffers (pH 7.8 at 25° C.) were used through the entire assay.

[3] = Acute toxicity, intravenous injection, determination of LD50; format: in vivo, mice; conditions: both sexes, ICR, mouse, in vivo, iv, ICR mice, single i.v., Bliss method
From the text: (§1) 1) Determination of LD50 (Tables III and IV): ICR mice, 18 ˜20 g, were divided into five groups, with 10 animals in each group (half male and half female). The ratio of doses between groups was 1:0.85.

ICR mice = test: as above; format: in vivo; conditions: for Number of deaths: 10 mice
From the text: as §1

SD rats [4] = test: Weight of deep vein thrombosis (inferior vena cava thrombi) in rats; format: in vivo, rat; conditions: for Thrombi (mg) Dry weight / Thrombi (mg) Wet weight: 4 hours
Protocol: The drug was administered immediately after operation and, 4 hours later, the thrombi were collected and weighted.

SD rats [5] = test: RT, TT, PT, APTT and FIB in rat plasma after administration; format: in vivo; set-up: FIB (Fibrillation) / RT (Clot Retraction Time) / TT (Thrombin Time): unit not given here
Protocol: Blood was taken at 0.5 h and 1.5 h after i.v. injection and at 1 h and 3 h after i.g. and plasma RT,TT,PT,APTT and FIB were determined.

[6] = i.v. 0.25 mg/kg, first time point (0.5 h)
[7] = i.v. 0.25 mg/kg, second time point (1.5 h)

T1 sequence (P00750 36-562, species assumed): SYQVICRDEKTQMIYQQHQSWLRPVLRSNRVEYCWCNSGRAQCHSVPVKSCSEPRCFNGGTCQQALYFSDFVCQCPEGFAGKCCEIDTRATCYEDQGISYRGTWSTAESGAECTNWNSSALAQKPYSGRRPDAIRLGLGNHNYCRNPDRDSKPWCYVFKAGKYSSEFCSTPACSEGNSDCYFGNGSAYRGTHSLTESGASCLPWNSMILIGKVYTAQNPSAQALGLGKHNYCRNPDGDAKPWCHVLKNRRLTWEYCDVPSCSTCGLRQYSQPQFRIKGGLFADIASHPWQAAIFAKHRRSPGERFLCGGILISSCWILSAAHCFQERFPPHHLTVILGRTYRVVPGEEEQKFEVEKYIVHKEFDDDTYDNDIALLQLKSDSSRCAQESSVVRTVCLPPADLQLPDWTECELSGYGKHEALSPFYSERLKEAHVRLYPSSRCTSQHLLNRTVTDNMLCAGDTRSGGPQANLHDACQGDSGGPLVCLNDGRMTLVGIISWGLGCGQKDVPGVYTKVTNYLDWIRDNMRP

CC1CNc2c(cccc2S(=O)(=O)N2C(=O)C3CC(C)CCN3C(=O)C2CCCNC(=N)N)C1 [NPI1999, (3S,6R,8R)-Bicyclo[4.4.0]-1,4-diaza-3-(3-guanidinopropyl)-4-N-(1,2,3,4-tetrahydro-3-methyl-8-quinolinesulfonyl)-8-methyl-2,5-decanedione, hydrochoride salt]
Cycloargatroban [Ki (Enzyme)/Ki (Thrombin)] vs. Argatroban [Ki (Enzyme)/Ki (Thrombin)] ([1]; enzyme = tPA): +1.2 fold | Ki ([1]; substrate Boc-L-(p-F) FPR-ANSNH-C2H5): 2020 µM | effect on APTT compared with argatroban [2]: less strong effect | effect on activated partial thromboplastin time (APTT) ([2]; FIG. 5): prolonged the APTT in a dose dependent manner | 95% confidence interval of LD50 at 2 weeks [3]: 10 to 11.9 mg/kg | LD50 at 2 weeks ([3]; observed 2 weeks): 10.9 mg/kg | Death rate (%) (ICR mice; i.v. 7.83 mg/kg): 0% | Number of deaths (ICR mice; i.v. 7.83 mg/kg): 0 | Number of death (ICR mice; i.v. 7.83 mg/kg, ♀, 4-13 days after administration): 0 | Number of death (ICR mice; i.v. 7.83 mg/kg, ♀, 1 day after administration): 0 | Number of death (ICR mice; i.v. 7.83 mg/kg, ♀, 2 days after administration): 0 | Number of death (ICR mice; i.v. 7.83 mg/kg, ♀, 3 days after administration): 0 | Number of death (ICR mice; i.v. 7.83 mg/kg, ♀, day of administration): 0 | Number of death (ICR mice; i.v. 7.83 mg/kg, ♂, 4-13 days after administration): 0 | Number of death (ICR mice; i.v. 7.83 mg/kg, ♂, 1 day after administration): 0 | Number of death (ICR mice; i.v. 7.83 mg/kg, ♂, 2 days after administration): 0 | Number of death (ICR mice; i.v. 7.83 mg/kg, ♂, 3 days after administration): 0 | Number of death (ICR mice; i.v. 7.83 mg/kg, ♂, day of administration): 0 | Death rate (%) (ICR mice; i.v. 9.21 mg/kg): 30% | Number of deaths (ICR mice; i.v. 9.21 mg/kg): 3 | Number of death (ICR mice; i.v. 9.21 mg/kg, ♀, 4-13 days after administration): 0 | Number of death (ICR mice; i.v. 9.21 mg/kg, ♀, 1 day after administration): 0 | Number of death (ICR mice; i.v. 9.21 mg/kg, ♀, 2 days after administration): 0 | Number of death (ICR mice; i.v. 9.21 mg/kg, ♀, 3 days after administration): 0 | Number of death (ICR mice; i.v. 9.21 mg/kg, ♀, day of administration): 2 | Number of death (ICR mice; i.v. 9.21 mg/kg, ♂, 4-13 days after administration): 0 | Number of death (ICR mice; i.v. 9.21 mg/kg, ♂, 1 day after administration): 0 | Number of death (ICR mice; i.v. 9.21 mg/kg, ♂, 2 days after administration): 0 | Number of death (ICR mice; i.v. 9.21 mg/kg, ♂, 3 days after administration): 0 | Number of death (ICR mice; i.v. 9.21 mg/kg, ♂, day of administration): 1 | Death rate (%) (ICR mice; i.v. 10.84 mg/kg): 50% | Number of deaths (ICR mice; i.v. 10.84 mg/kg): 5 | Number of death (ICR mice; i.v. 10.84 mg/kg, ♀, 4-13 days after administration): 0 | Number of death (ICR mice; i.v. 10.84 mg/kg, ♀, 1 day after administration): 0 | Number of death (ICR mice; i.v. 10.84 mg/kg, ♀, 2 days after administration): 0 | Number of death (ICR mice; i.v. 10.84 mg/kg, ♀, 3 days after administration): 0 | Number of death (ICR mice; i.v. 10.84 mg/kg, ♀, day of administration): 3 | Number of death (ICR mice; i.v. 10.84 mg/kg, ♂, 4-13 days after administration): 0 | Number of death (ICR mice; i.v. 10.84 mg/kg, ♂, 1 day after administration): 0 | Number of death (ICR mice; i.v. 10.84 mg/kg, ♂, 2 days after administration): 0 | Number of death (ICR mice; i.v. 10.84 mg/kg, ♂, 3 days after administration): 0 | Number of death (ICR mice; i.v. 10.84 mg/kg, ♂, day of administration): 2 | Death rate (%) (ICR mice; i.v. 12.75 mg/kg): 80% | Number of deaths (ICR mice; i.v. 12.75 mg/kg): 8 | Number of death (ICR mice; i.v. 12.75 mg/kg, ♀, 4-13 days after administration): 0 | Number of death (ICR mice; i.v. 12.75 mg/kg, ♀, 1 day after administration): 0 | Number of death (ICR mice; i.v. 12.75 mg/kg, ♀, 2 days after administration): 0 | Number of death (ICR mice; i.v. 12.75 mg/kg, ♀, 3 days after administration): 0 | Number of death (ICR mice; i.v. 12.75 mg/kg, ♀, day of administration): 4 | Number of death (ICR mice; i.v. 12.75 mg/kg, ♂, 4-13 days after administration): 0 | Number of death (ICR mice; i.v. 12.75 mg/kg, ♂, 1 day after administration): 0 | Number of death (ICR mice; i.v. 12.75 mg/kg, ♂, 2 days after administration): 0 | Number of death (ICR mice; i.v. 12.75 mg/kg, ♂, 3 days after administration): 0 | Number of death (ICR mice; i.v. 12.75 mg/kg, ♂, day of administration): 4 | Death rate (%) (ICR mice; i.v. 15.00 mg/kg): 90% | Number of deaths (ICR mice; i.v. 15.00 mg/kg): 9 | Number of death (ICR mice; i.v. 15.00 mg/kg, ♀, 4-13 days after administration): 0 | Number of death (ICR mice; i.v. 15.00 mg/kg, ♀, 1 day after administration): 0 | Number of death (ICR mice; i.v. 15.00 mg/kg, ♀, 2 days after administration): 0 | Number of death (ICR mice; i.v. 15.00 mg/kg, ♀, 3 days after administration): 0 | Number of death (ICR mice; i.v. 15.00 mg/kg, ♀, day of administration): 4 | Number of death (ICR mice; i.v. 15.00 mg/kg, ♂, 4-13 days after administration): 0 | Number of death (ICR mice; i.v. 15.00 mg/kg, ♂, 1 day after administration): 0 | Number of death (ICR mice; i.v. 15.00 mg/kg, ♂, 2 days after administration): 0 | Number of death (ICR mice; i.v. 15.00 mg/kg, ♂, 3 days after administration): 0 | Number of death (ICR mice; i.v. 15.00 mg/kg, ♂, day of administration): 5 | Thrombi (mg) Dry weight (SD rats [4]; 0.125 mg/kg i.v.): 7.62 ± 6.18 mg | Thrombi (mg) Wet weight (SD rats [4]; 0.125 mg/kg i.v.): 19.84 ± 12.17 mg | Thrombi (mg) Dry weight (SD rats [4]; 0.25 mg/kg i.v.): 6.70 ± 4.34 mg | Thrombi (mg) Wet weight (SD rats [4]; 0.25 mg/kg i.v.): 19.63 ± 12.02 mg | Thrombi (mg) Dry weight (SD rats [4]; 0.50 mg/kg i.v.): 5.81 ± 3.25 mg | Thrombi (mg) Wet weight (SD rats [4]; 0.50 mg/kg i.v.): 18.85 ± 8.61 mg | Thrombi (mg) Dry weight (SD rats [4]; 75 mg/kg intraduodenum): 11.66 ± 4.23 mg | Thrombi (mg) Wet weight (SD rats [4]; 75 mg/kg intraduodenum): 32.02 ± 19.34 mg | thrombi weights (SD rats [4]; i.v. groups (0.125, 0.25, 0.5 mg/kg)): thrombi weights were decreased | thrombi weights (SD rats [4]; intra-duodenum 75 mg/kg): no obvious effect | APTT (Activated Partial Prothromboplastin Time) (SD rats [5]; 0.125 mg/kg i.v., 0.5 h): 28.0 ± 4.0 | FIB (Fibrillation) (SD rats [5]; 0.125 mg/kg i.v., 0.5 h): 4.2 ± 0.9 | PT (Prothrombin Time) (SD rats [5]; 0.125 mg/kg i.v., 0.5 h): 25.3 ± 5.8 | RT (Clot Retraction Time) (SD rats [5]; 0.125 mg/kg i.v., 0.5 h): 83.7 ± 9.7 | TT (Thrombin Time) (SD rats [5]; 0.125 mg/kg i.v., 0.5 h): 53.6 ± 11.1 | APTT (Activated Partial Prothromboplastin Time) (SD rats [5]; 0.125 mg/kg i.v., 1.5 h): 28.1 ± 4.6 | FIB (Fibrillation) (SD rats [5]; 0.125 mg/kg i.v., 1.5 h): 4.5 ± 1.2 | PT (Prothrombin Time) (SD rats [5]; 0.125 mg/kg i.v., 1.5 h): 25.0 ± 7.1 | RT (Clot Retraction Time) (SD rats [5]; 0.125 mg/kg i.v., 1.5 h): 60.4 ± 15.9 | TT (Thrombin Time) (SD rats [5]; 0.125 mg/kg i.v., 1.5 h): 39.2 ± 12.5 | APTT (Activated Partial Prothromboplastin Time) (SD rats [5]; 0.25 mg/kg i.v., 0.5 h): 46.7 ± 15.0 | FIB (Fibrillation) (SD rats [5]; 0.25 mg/kg i.v., 0.5 h): 2.09 ± 0.5 | PT (Prothrombin Time) (SD rats [5]; 0.25 mg/kg i.v., 0.5 h): 43.1 ± 17.8 | RT (Clot Retraction Time) (SD rats [5]; 0.25 mg/kg i.v., 0.5 h): 107.6 ± 33.7 | TT (Thrombin Time) (SD rats [5]; 0.25 mg/kg i.v., 0.5 h): 62.1 ± 15.8 | APTT (Activated Partial Prothromboplastin Time) (SD rats [5]; 0.25 mg/kg i.v., 1.5 h): 34.1 ± 10.3 | FIB (Fibrillation) (SD rats [5]; 0.25 mg/kg i.v., 1.5 h): 2.7 ± 0.8 | PT (Prothrombin Time) (SD rats [5]; 0.25 mg/kg i.v., 1.5 h): 34.6 ± 10.1 | RT (Clot Retraction Time) (SD rats [5]; 0.25 mg/kg i.v., 1.5 h): 78.6 ± 16 | TT (Thrombin Time) (SD rats [5]; 0.25 mg/kg i.v., 1.5 h): 49.6 ± 10.9 | APTT (Activated Partial Prothromboplastin Time) (SD rats [5]; 75 mg/kg i.g., 1 h): 30.2 ± 6.9 | FIB (Fibrillation) (SD rats [5]; 75 mg/kg i.g., 1 h): 4.4 ± 0.7 | PT (Prothrombin Time) (SD rats [5]; 75 mg/kg i.g., 1 h): 26.6 ± 5.5 | RT (Clot Retraction Time) (SD rats [5]; 75 mg/kg i.g., 1 h): 74.8 ± 16.6 | TT (Thrombin Time) (SD rats [5]; 75 mg/kg i.g., 1 h): 53.2 ± 10.0 | APTT (Activated Partial Prothromboplastin Time) (SD rats [5]; 75 mg/kg i.g., 3.0 h): 25.7 ± 4.0 | FIB (Fibrillation) (SD rats [5]; 75 mg/kg i.g., 3.0 h): 4.5 ± 0.6 | PT (Prothrombin Time) (SD rats [5]; 75 mg/kg i.g., 3.0 h): 26.6 ± 5.7 | RT (Clot Retraction Time) (SD rats [5]; 75 mg/kg i.g., 3.0 h): 77 ± 29.9 | TT (Thrombin Time) (SD rats [5]; 75 mg/kg i.g., 3.0 h): 42.5 ± 9.4 | RT, TT, PT, APTT, FIB indexes (SD rats [5]; i.g. 75 mg/kg, 1 h or 3 h): None of the indexes was significantly affected | RT, TT, PT, APTT, FIB indexes (SD rats [5]; i.v. 0.125 mg/kg, first time point): RT alone was increased | RT, TT, PT, APTT, FIB indexes (SD rats [5]; i.v. 0.125 mg/kg, second time point): none of the indexes were affected significantly | FIB (SD rats [5]; [6]): reduced | RT, TT, PT and APTT (SD rats [5]; [6]): significantly increased | APTT and FIB (SD rats [5]; [7]): no significantly affected | RT, TT, PT (SD rats [5]; [7]): Only RT,TT,PT were increased
